Key:
Format in all cases: cell-based
[1] = tested on: OVCAR8 parental, MZ1-R or ARV-R; assay: 14-day colony formation assay, crystal violet staining; conditions: ARV-R or MZ1-R vs parental OVCAR8, 14-day
Experimental: Parental, JQ1-R or MZ1-R OVCAR8 cells were treated with escalating doses of MK2206 for 5 days and cell viability assessed by CellTiter-Glo. MZ1-R or JQ1-R inhibitor treated cell viabilities normalized to DMSO treated JQ1-R or MZ1-R cells, respectfully (FIG. 11J). […] Parental, JQ1-R or MZ1-R OVCAR8 cells were treated with escalating doses of LP-935509 for 5 days and cell viability assessed by CellTiter-Glo. MZ1-R or JQ1-R inhibitor treated cell viabilities normalized to DMSO treated JQ1-R or MZ1-R cells, respectfully (FIG. 11K). […] Long-term 14-day colony formation assay of OVCAR8 parental, MZ1-R or ARV-R were treated with escalating doses of GSK529A or DMSO. Colony formation was assessed by crystal violet staining (FIG. 11L).

[2] = tested on: BET proteins (BRD2, BRD4); assay: Western blot of BET proteins, KURAMOCHI, COV362 and OVCAR5 MZ1-R cells
[3] = tested on: OVCAR5 JQ1-R cells; assay: Growth curves, OVCAR5 JQ1-R cells
[4] = tested on: KURAMOCHI, COV362 and OVCAR5 MZ1-R cells; assay: CellTiter-Glo cell viability, KURAMOCHI, COV362 and OVCAR5 MZ1-R cells; conditions: COV362 and OVCAR5, escalating doses, 5 days
[5] = tested on: BET proteins, FOSL1, MYC; assay: Western blot of BET proteins and BRD4 targets, JQ1-R cells
[6] = tested on: BET proteins (BRD2, BRD3, BRD4); assay: Western blot of BET proteins and BRD4 targets, OVCAR8 MZ1-R cells; conditions: for BET protein levels: Western blot
[7] = target: T1, CDK9 (Homo sapiens, UniProt P50750); assay: Western blot of CDK9 protein levels, OVCAR8 Thal-R cells; conditions: Thal 500 nM or 2 μM kinase inhibitor, 4 hours
T1 construct: OVCAR8 cells were treated with escalating doses of Thal SNS 032 and CDK9 protein levels were determined by Western blot; endogenous in cells; host or cells: OVCAR8 parental and Thal-R cells
Experimental: OVCAR8 cells were treated with escalating doses of Thal SNS 032 and CDK9 protein levels were determined by Western blot (FIG. 15A). […] Thal-R inhibitor treated cell viabilities were normalized to DMSO treated Thal-R cells. […] OVCAR8 cells were treated with 100 nM Thal SNS 032, escalating doses of GSK529A or RAD001, or the combination of Thal SNS 032 and kinase inhibitors, for 5 days and cell viability was assessed by CellTiter-Glo (FIGS. 15F and 15G).

[8] = tested on: OVCAR8 Thal-R cells; assay: CellTiter-Glo cell viability, OVCAR8 Thal-R cells; conditions: OVCAR8, escalating doses, 5 days
Experimental: (§1) Chronic exposure of OVCAR8 cells to CDK9 PROTAC (Thal SNS 032) sensitized cells to RAD001 or GSK1904529A. […] Moreover, these studies show both BET PROTACs and CDK9 PROTACs elicit a similar dependency on MTOR signaling to promote drug resistance. […] OVCAR8 cells were treated with escalating doses of Thal SNS 032 and CDK9 protein levels were determined by Western blot (FIG. 15A). […] (FIG. 15B). […] Thal-R inhibitor treated cell viabilities were normalized to DMSO treated Thal-R cells. Combination therapies involving GSK529A or RAD001 and Thal SNS 032 improved growth repression of OVCAR8 cells. OVCAR8 cells were treated with 100 nM Thal SNS 032, escalating doses of GSK529A or RAD001, or the combination of Thal SNS 032 and kinase inhibitors, for 5 days and cell viability was assessed by CellTiter-Glo (FIGS. 15F and 15G).

[9] = tested on: OVCAR8 MZ1-R cells; assay: Apoptosis by Western blot, OVCAR8 MZ1-R cells
[10] = tested on: BRD2, BRD3 or BRD4 RNA; assay: qRT-PCR of BRD RNA levels, OVCAR8 MZ1-R cells; conditions: 1 μM, 48 hours
[11] = tested on: OVCAR8 ARV-R cells; assay: CellTiter-Glo cell viability, OVCAR8 ARV-R cells; conditions: escalating doses, 5 days
[12] = tested on: OVCAR8 MZ1-R cells; assay: CellTiter-Glo cell viability, OVCAR8 MZ1-R cells; conditions: escalating doses, 5 days; for sensitivity of MZ1-R cells relative to JQ1-R cells or parental cells: OVCAR8, inhibitor screen
[13] = tested on: BET proteins (BRD2, BRD3, BRD4); assay: Western blot of BET protein levels, OVCAR8 parental cells
[14] = tested on: INSR and downstream MTOR, AKT and MAPK signaling; assay: Kinase signaling in BBD-R cells (MIB-MS, phospho-blot); conditions: for phosphorylation of P70S6K (T359): BBD-R cells (MZ1-R, ARV-R), 4 hours
Experimental: Reduced MIB-binding of kinases involved in cell cycle (WEE1, CHEK1, CDK2, CDK6 and PLK1), as well as kinases required for translation (EIF2AK1, EIF2AK2, and EIF2AK4) were also observed following GSK529A treatment. […] Enrichment maps of pathways repressed by INSR inhibition generated from MIB-MS profiles of OVCAR8 cells treated with GSK529A (1 μM) treatment for 48 hours. Statistical differences in protein log 2 LFQ z-scores comparing GSK529A to control treated MZ1-R cells was determined by paired T-Test Benjamini- Hochberg adjusted p values at FDR of <0.05 using Perseus Software. […] Enrichment maps were generated in Cytoscape using the Enrichment Map app v2.2.1. (data not shown).

[15] = tested on: BET proteins (BRD2, BRD3, BRD4); assay: Western blot of BET proteins, OVCAR8 ARV-R cells
[16] = tested on: DLD-1 cells; assay: Spheroid assay, DLD-1 cells; conditions: 2 μM RAD001, 1 nM dBET6
Experimental: Data were analyzed as % cell viability of DMSO control, presented as means of 3 independent assays.

[17] = tested on: KURAMOCHI cells; assay: Combination cell viability, KURAMOCHI cells, CellTiter-Glo; conditions: 100 nM, 5 days
Description: The proposed model of the protection of BRD4 from PROTAC-degradation by MTOR signaling in ovarian cancer cells is shown in FIG. 7J. PROTAC-mediated degradation of BRD4 induces RTK signaling resulting in increased MTOR signaling which prevents the degradation of BRD4 in cells resistant to BET PROTACs.

[18] = target: T1, CDK9; assay: Western blot of CDK9 protein levels, OVCAR8 cells; conditions: escalating doses
Experimental: as §1

[19] = tested on: DLD-1 cells; assay: Cell-Titer Glo cell viability and drug synergy, DLD-1 cells
Experimental: Blockade of MTORC1 signaling sensitizes cancer cells resistant to BET-PROTACs. […] Data were analyzed as % cell viability of DMSO control, presented as means of 3 independent assays.

T1 sequence (P50750 whole entry): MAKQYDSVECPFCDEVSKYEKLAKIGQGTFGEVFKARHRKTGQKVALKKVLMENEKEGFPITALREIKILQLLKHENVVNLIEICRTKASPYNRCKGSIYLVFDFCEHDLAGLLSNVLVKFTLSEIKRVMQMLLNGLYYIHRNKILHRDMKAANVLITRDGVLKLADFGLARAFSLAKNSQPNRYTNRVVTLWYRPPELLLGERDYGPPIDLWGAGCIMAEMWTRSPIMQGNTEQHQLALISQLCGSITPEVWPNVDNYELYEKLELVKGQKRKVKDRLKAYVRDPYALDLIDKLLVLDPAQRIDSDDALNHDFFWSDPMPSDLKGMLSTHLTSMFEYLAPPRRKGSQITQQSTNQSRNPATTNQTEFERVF
T1 sequence (O60563 whole entry partner): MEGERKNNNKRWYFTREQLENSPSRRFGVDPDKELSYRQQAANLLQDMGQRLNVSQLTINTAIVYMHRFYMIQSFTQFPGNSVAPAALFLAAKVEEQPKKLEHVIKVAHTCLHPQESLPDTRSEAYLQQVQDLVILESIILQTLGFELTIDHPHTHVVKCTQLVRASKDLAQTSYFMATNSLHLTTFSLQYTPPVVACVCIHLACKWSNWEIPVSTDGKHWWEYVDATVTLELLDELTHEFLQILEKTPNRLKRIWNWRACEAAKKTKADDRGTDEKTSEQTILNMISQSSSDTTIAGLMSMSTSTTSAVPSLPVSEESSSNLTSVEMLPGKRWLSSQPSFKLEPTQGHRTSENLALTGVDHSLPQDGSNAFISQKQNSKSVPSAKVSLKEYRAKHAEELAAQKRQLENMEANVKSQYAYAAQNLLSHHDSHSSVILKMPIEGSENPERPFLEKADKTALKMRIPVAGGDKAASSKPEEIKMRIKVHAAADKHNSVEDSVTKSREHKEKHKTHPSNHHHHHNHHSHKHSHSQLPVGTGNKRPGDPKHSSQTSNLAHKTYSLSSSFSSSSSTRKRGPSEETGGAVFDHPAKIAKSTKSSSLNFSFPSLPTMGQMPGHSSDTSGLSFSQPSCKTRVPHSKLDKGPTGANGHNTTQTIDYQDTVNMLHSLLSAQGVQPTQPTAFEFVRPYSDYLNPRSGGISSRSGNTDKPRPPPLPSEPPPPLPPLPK

CDK9 protein levels [7] | Compound | BET protein levels [2] | growth inhibition [3] | cell viability / growth of MZ1-R cells compared with parental cells [4] | BET protein levels [6] | sensitivity of Thal-R cells relative to parental cells [8] | apoptosis [9] | BRD2, BRD3 or BRD4 RNA levels [10] | cell viability of ARV-R cells compared with parental cells [11] | sensitivity of MZ1-R cells relative to JQ1-R cells or parental cells [12] | phosphorylation of P70S6K (T359) ([14]; 1 μM) | spheroid growth in 3D assays [16] | cell viability / growth inhibition [17] | other results
downregulation of CDK9 | CO[C@H]1C[C@@H]2CC[C@@H](C)[C@@](O)(O2)C(=O)C(=O)N2CCCC[C@H]2C(=O)O[C@H]([C@H](C)C[C@@H]2CC[C@@H](OCCO)[C@H](OC)C2)CC(=O)[C@H](C)/C=C(\C)[C@@H](O)[C@@H](OC)C(=O)[C@H](C)C[C@H](C)/C=C/C=C/C=C/1C [RAD001] | reduced BRD2 and BRD4 proteins | minimal growth inhibition | significantly blocked cell growth to a greater extent than parental cells | reduced BRD2 and BRD4 levels | more sensitive |  | unaffected | reduced cell viability more than in parental cells | more sensitive | reduced MTOR-mediated phosphorylation of P70S6K (T359) | ineffective | less effective | BET protein levels [15]: reduced BRD2 and BRD4 levels; phosphorylated RNA pol II (S2) ([14]; OVCAR8 MZ1-R cells, 48 hour RAD001 treatment, with or without bortezomib): inhibition of phosphorylated RNA pol II (S2)
failed to degrade CDK9 | CC(C)(C)c1cnc(CSc2cnc(NC(=O)C3CCN(CC(=O)NCCOCCOCCOCCNc4cccc5c4C(=O)N(C4CCC(=O)NC4=O)C5=O)CC3)s2)o1 (stereo not drawn) [Thal SNS 032] |  |  |  |  |  |  |  |  |  |  |  |  | CDK9 protein levels [18]: reduction of CDK9 protein levels
 | Cc1sc2c(c1C)C(c1ccc(Cl)cc1)=N[C@@H](CC(=O)NCCCCCCCCNC(=O)COc1cccc3c1C(=O)N(C1CCC(=O)NC1=O)C3=O)c1nnc(C)n1-2 (stereo partly drawn) [dBET6] |  |  |  |  |  | promoted apoptosis |  | cross resistance |  |  | ineffective | less effective | GI50 [19]: > 1 µM; cell viability of MZ1-R cells compared with parental cells ([12]; OVCAR8 MZ1-R): inhibited cell viability

Compound | CDK9 protein levels [7] | BET protein levels [2] | growth inhibition [3] | cell viability / growth of MZ1-R cells compared with parental cells [4] | BET protein levels [6] | sensitivity of Thal-R cells relative to parental cells [8] | apoptosis [9] | BRD2, BRD3 or BRD4 RNA levels [10] | cell viability of ARV-R cells compared with parental cells [11] | sensitivity of MZ1-R cells relative to JQ1-R cells or parental cells [12] | phosphorylation of P70S6K (T359) ([14]; 1 μM) | spheroid growth in 3D assays [16] | cell viability / growth inhibition [17] | other results
CCc1cc(Nc2nccc(-c3c(-c4ccc(OC)c(C(=O)Nc5c(F)cccc5F)c4)nc4ccccn34)n2)c(OC)cc1N1CCC(N2CCN(S(C)(=O)=O)CC2)CC1 [GSK1904529A] | downregulation of CDK9 | reduced BRD2 and BRD4 proteins | minimal growth inhibition | significantly blocked cell growth to a greater extent than parental cells | significantly reduced | more sensitive | induction of apoptosis | unaffected | reduced cell viability more than in parental cells | more sensitive | reduced MTOR-mediated phosphorylation of P70S6K (T359) |  |  | colony formation [1]: inhibited colony formation to a greater extent than parental cells; BET protein levels [5]: did not reduce BET protein levels; MYC protein levels ([6]; escalating doses, 48 hours): dose dependent reduction in MYC protein levels; BET protein levels [13]: did not reduce BET protein levels; kinase MIB-binding ([14]; OVCAR8 MZ1-R cells, 1 μM, 48 hours, MIB-MS): reduced MIB-binding of drug targets INSR and IGF1R; kinase activity by phospho-blot ([14]; OVCAR8 MZ1-R cells, escalating doses, 48 hours): Inhibition of INSR/IGF1R, MTOR, P70S6K, BRAF and ERK activity
